Among the data in US20240174675A1, “SMALL MOLECULE REGULATORS OF ALVEOLAR TYPE 2 CELL PROLIFERATION FOR THE TREATMENT OF PULMONARY DISEASES” (THE SCRIPPS RESEARCH INSTITUTE, priority 2021, published 2024) are IC50 values, retold here.

For the experiment, the target named is T1, Human DPP4 (Homo sapiens, UniProt P27487).
T1 construct: purchased Sigma-Aldrich MAK088
The experiment can be described thus: DPP4 activity assay (DPP4 Activity Assay Kit, fluorescent substrate). The conditions noted are these: Human DPP4; read-out: DPP4 inhibition IC50 [nM]). In kind it is biochemical. The protocol:
DPP4 activity assay. Human DPP4 activity assay data were obtained using a DPP4 Activity Assay Kit (Sigma-Aldrich, MAK088) according to the manufacturer's instructions. Briefly, 10 μL of DPP4 Assay Buffer were transferred per well in low volume 384-well plates before transferring 10 μL of test compound dissolved in DPP4 assay buffer. To each well was added 5 μL of Master Reaction Mix containing a fluorescent substrate that becomes fluorescent upon cleavage by the enzyme. Fluorescence intensity measurements were recorded at 1-minute time intervals over the course of 20 minutes using an Envision Multimode Plate Reader (PerkinElmer).

Structures can show the parent of a compound that is named as a salt.

T1 sequence (P27487 whole entry): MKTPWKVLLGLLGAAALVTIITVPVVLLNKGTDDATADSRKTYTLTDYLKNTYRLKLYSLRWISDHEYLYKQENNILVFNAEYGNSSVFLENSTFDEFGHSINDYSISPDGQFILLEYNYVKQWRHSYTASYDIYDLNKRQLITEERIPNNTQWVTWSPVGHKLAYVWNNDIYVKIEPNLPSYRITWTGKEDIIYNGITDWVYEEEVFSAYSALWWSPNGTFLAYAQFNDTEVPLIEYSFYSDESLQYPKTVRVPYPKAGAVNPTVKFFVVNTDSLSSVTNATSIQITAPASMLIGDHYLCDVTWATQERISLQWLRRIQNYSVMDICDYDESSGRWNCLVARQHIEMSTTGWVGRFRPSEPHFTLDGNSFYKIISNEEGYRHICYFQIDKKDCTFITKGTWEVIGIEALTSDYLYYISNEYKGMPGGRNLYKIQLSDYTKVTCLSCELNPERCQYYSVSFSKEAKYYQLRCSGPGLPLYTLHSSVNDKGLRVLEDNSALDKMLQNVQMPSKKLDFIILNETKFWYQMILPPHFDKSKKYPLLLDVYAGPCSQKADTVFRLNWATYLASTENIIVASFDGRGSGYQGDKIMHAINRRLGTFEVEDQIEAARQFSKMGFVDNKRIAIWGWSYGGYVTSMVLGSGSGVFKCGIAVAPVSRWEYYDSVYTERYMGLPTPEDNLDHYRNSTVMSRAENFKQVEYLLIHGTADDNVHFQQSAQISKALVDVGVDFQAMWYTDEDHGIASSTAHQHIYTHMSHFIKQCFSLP

Take `CCCCCCCS(=O)C12CC3C[C@@H](CC(NCC(=O)N4CCC[C@H]4C#N)(C3)C1)C2` (stereo in doubt) [Compound 3, (2S)-1-(((1S,3R,5S)-3-(heptylsulfinyl)adamantan-1-yl)glycyl)pyrrolidine-2-carbonitrile]: the IC50 was found to be 9 nM.

For the compound `CCCCCCN(CCc1ccc(OCCNC(=O)OCCSC23CC4C[C@@H](CC(NCC(=O)N5CCC[C@H]5C#N)(C4)C2)C3)cc1)C[C@H](O)[C@@H](O)[C@H](O)[C@H](O)CO` (stereo in doubt) [Compound 4, 2-(((1R,3S,5S)-3-((2-((S)-2-cyanopyrrolidin-1-yl)-2-oxoethyl)amino)adamantan-1-yl)thio)ethyl (2-(4-(2-(hexyl((2S,3R,4R,5R)-2,3,4,5,6-pentahydroxyhexyl)amino)ethyl)phenoxy)ethyl)carbamate], the IC50 is 11 nM. With `N#C[C@@H]1CCCN1C(=O)CN[C@]12CC3CC(C1)C[C@@](OCCO)(C3)C2` (stereo in doubt) [Compound 5, (2S)-1-(((1S,3R,5S)-3-(2-hydroxyethoxy)adamantan-1-yl)glycyl)pyrrolidine-2-carbonitrile] the figure was 2.3 nM. For `CCCCCCCOC12CC3C[C@@H](CC(NCC(=O)N4CCC[C@H]4C#N)(C3)C1)C2` (stereo in doubt) [Compound 6], the IC50 was 31 nM.

For the compound `N#C[C@@H]1CCCN1C(=O)CN[C@]12CC3CC(C1)C[C@@](OCCOCCNC[C@H](O)[C@@H](O)[C@H](O)[C@H](O)CO)(C3)C2` (stereo in doubt) [Compound 11, (2S)-1-(((1S,3R,5S)-3-(2-(2-(((2S,3R,4R,5R)-2,3,4,5,6-pentahydroxyhexyl)amino)ethoxy)ethoxy)adamantan-1-yl)glycyl)pyrrolidine-2-carbonitrile], the IC50 turned out to be 31.6 nM.

As to `CCCCCCN(CCc1ccc(OCCNC(=O)OCCOC23CC4C[C@@H](CC(NCC(=O)N5CCC[C@H]5C#N)(C4)C2)C3)cc1)C[C@H](O)[C@@H](O)[C@H](O)[C@H](O)CO` (stereo in doubt) [Compound 13, 2-(((1R,3S,5S)-3-((2-((S)-2-cyanopyrrolidin-1-yl)-2-oxoethyl)amino)adamantan-1-yl)oxy)ethyl (2-(4-(2-(hexyl((2S,3R,4R,5R)-2,3,4,5,6-pentahydroxyhexyl)amino)ethyl)phenoxy)ethyl)carbamate], the IC50 is 23 nM. With `N#C[C@@H]1C[C@@H]2C[C@@H]2N1C(=O)[C@@H](N)[C@]12CC3CC(C[C@](OCCOC(=O)NCc4ccc(CN(C[C@@H](O)[C@H](O)[C@@H](O)[C@@H](O)CO)C[C@@H](O)[C@H](O)[C@@H](O)[C@@H](O)CO)cc4)(C3)C1)C2` (stereo in doubt) [Compound 22, 2-(((1R,3S,5S)-3-((S)-1-amino-2-((1S,3S,5S)-3-cyano-2-azabicyclo[3.1.0]hexan-2-yl)-2-oxoethyl)adamantan-1-yl)oxy)ethyl (4-((bis((2S,3R,4R,5R)-2,3,4,5,6-pentahydroxyhexyl)amino)methyl)benzyl)carbamate trifluoracetate salt] the figure was 6.6 nM; with `CCCCCCCC(=O)OC12CC3C[C@@H](CC(NCC(=O)N4CCC[C@H]4C#N)(C3)C1)C2` (stereo in doubt) [Compound 24], 238 nM; with `CCCCCCCOC(=O)NC12CC3CC(CC(NCC(=O)N4CCC[C@H]4C#N)(C3)C1)C2` [Compound 1, Heptyl(3-((2-((S)-2-cyanopyrrolidin-1-yl)-2-oxoethyl)amino)adamantan-1-yl)carbamate], 31 nM. With `CCCCCCCSC12CC3C[C@@H](CC(NCC(=O)N4CCC[C@H]4C#N)(C3)C1)C2` [Compound 2, (2S)-1-((3-(heptylthio)adamantan-1-yl)glycyl)pyrrolidine-2-carbonitrile] the figure was 26 nM. Turning to `CCCCCCCC(=O)OCOC12CC3CC(CC(NCC(=O)N4CCC[C@H]4C#N)(C3)C1)C2` [Compound 7, ((3-((2-((S)-2-cyanopyrrolidin-1-yl)-2-oxoethyl)amino)adamantan-1-yl)oxy)methyl Octanoate], the half-maximal inhibitory concentration (IC50) was determined as 32 nM. As for `CCCCCCN(Cc1cn(CCOCCOCCOC23CC4CC(CC(NCC(=O)N5CCC[C@H]5C#N)(C4)C2)C3)nn1)C[C@H](O)[C@@H](O)[C@H](O)[C@H](O)CO` [Compound 8, (2S)-1-(((1S,3R,5S)-3-(2-(2-(2-(4-((hexyl((2S,3R,4R,5R)-2,3,4,5,6-pentahydroxyhexyl)amino)methyl)-1H-1,2,3-triazol-1-yl)ethoxy)ethoxy)ethoxy)adamantan-1-yl)glycyl)pyrrolidine-2-carbonitrile], the figure is 14.2 nM; as for `N#C[C@@H]1CCCN1C(=O)CN[C@@]12CC3C[C@@H](C1)C[C@](OCCOCCn1cc(CN(C[C@H](O)[C@@H](O)[C@H](O)[C@H](O)CO)C[C@H](O)[C@@H](O)[C@H](O)[C@H](O)CO)nn1)(C3)C2` [Compound 9, (2S)-1-(((1S,3R,5S)-3-(2-(2-(4-((bis((2S,3R,4R,5R)-2,3,4,5,6-pentahydroxyhexyl)amino)methyl)-1H-1,2,3-triazol-1-yl)ethoxy)ethoxy)adamantan-1-yl)glycyl)pyrrolidine-2-carbonitrile], 10.8 nM.

As for `N#C[C@@H]1CCCN1C(=O)CN[C@@]12CC3C[C@@H](C1)C[C@](OCCOCCN(C[C@H](O)[C@@H](O)[C@H](O)[C@H](O)CO)C[C@H](O)[C@@H](O)[C@H](O)[C@H](O)CO)(C3)C2` [Compound 10, (2S)-1-(((1S,3R,5S)-3-(2-(2-(bis((2S,3R,4R,5R)-2,3,4,5,6-pentahydroxyhexyl)amino)ethoxy)ethoxy)adamantan-1-yl)glycyl)pyrrolidine-2-carbonitrile], the IC50 was 20.8 nM. With `CCN(Cc1ccc(CNC(=O)OCCOCCO[C@@]23CC4C[C@@H](C[C@@](NCC(=O)N5CCC[C@H]5C#N)(C4)C2)C3)cc1)C[C@H](O)[C@@H](O)[C@H](O)[C@H](O)CO` [Compound 12, 2-(2-(((1R,3S,5S)-3-((2-((S)-2-cyanopyrrolidin-1-yl)-2-oxoethyl)amino)adamantan-1-yl)oxy)ethoxy)ethyl (4-((ethyl((2S,3R,4R,5R)-2,3,4,5,6-pentahydroxyhexyl)amino)methyl)benzyl)carbamate] the figure was 7.9 nM; with `N#C[C@@H]1CCCN1C(=O)CN[C@@]12CC3C[C@@H](C1)C[C@](OCCOCCn1cc(CNC[C@H](O)[C@@H](O)[C@H](O)[C@H](O)CO)nn1)(C3)C2` [Compound 14, (2S)-1-(((1S,3R,5S)-3-(2-(2-(4-((((2S,3R,4R,5R)-2,3,4,5,6-pentahydroxyhexyl)amino)methyl)-1H-1,2,3-triazol-1-yl)ethoxy)ethoxy)adamantan-1-yl)glycyl)pyrrolidine-2-carbonitrile], 8.2 nM; with `CCCCCCN(Cc1cn(CCOCCOC23CC4CC(CC(NCC(=O)N5CCC[C@H]5C#N)(C4)C2)C3)nn1)C[C@H](O)[C@@H](O)[C@H](O)[C@H](O)CO` [Compound 15], 17.4 nM. With `N#C[C@@H]1C[C@@H]2C[C@@H]2N1C(=O)[C@@H](N)[C@]12CC3C[C@H](C[C@](OCCO)(C3)C1)C2` [Compound 16, (1S,3S,5S)-2-((2S)-2-amino-2-((1S,3R,5S)-3-(2-hydroxyethoxy)adamantan-1-yl)acetyl)-2-azabicyclo[3.1.0]hexane-3-carbonitrile] the figure was 7.9 nM; with `N#C[C@@H]1C[C@@H]2C[C@@H]2N1C(=O)[C@@H](N)C12CC3C[C@H](CC(OCCOC(=O)CNc4ccc(CN(CCO)CCO)cc4)(C3)C1)C2` [Compound 18], 12 nM. With `CCCCCCN(Cc1cn(CCOCCOC23CC4C[C@H](C2)CC([C@H](N)C(=O)N2[C@H](C#N)C[C@@H]5C[C@@H]52)(C4)C3)nn1)C[C@H](O)[C@@H](O)[C@H](O)[C@H](O)CO` [Compound 20] the figure was 47.8 nM; with `CCCCCCN(Cc1cn(CCOCCOCCOC23CC4CC(C2)CC([C@H](N)C(=O)N2[C@H](C#N)C[C@@H]5C[C@@H]52)(C4)C3)nn1)C[C@H](O)[C@@H](O)[C@H](O)[C@H](O)CO` [Compound 21], 7.7 nM; with `CCN(Cc1ccc(CNC(=O)OCCO[C@]23CC4C[C@H](C2)C[C@@]([C@H](N)C(=O)N2[C@H](C#N)C[C@@H]5C[C@@H]52)(C4)C3)cc1)C[C@H](O)[C@@H](O)[C@H](O)[C@H](O)CO` [Compound 23, 2-(((1R,3S,5S)-3-((S)-1-amino-2-((1S,3S,5S)-3-cyano-2-azabicyclo[3.1.0]hexan-2-yl)-2-oxoethyl)adamantan-1-yl)oxy)ethyl (4-((ethyl((2S,3R,4R,5R)-2,3,4,5,6-pentahydroxyhexyl)amino)methyl)benzyl)carbamate Formate], 4.2 nM.

For `CC#CCn1c(N2CCC[C@@H](N)C2)nc2c1c(=O)n(Cc1ccccc1B(O)O)c(=O)n2C` [Compound 27, (R)-(2-((8-(3-aminopiperidin-1-yl)-7-(but-2-yn-1-yl)-3-methyl-2,6-dioxo-2,3,6,7-tetrahydro-1H-purin-1-yl)methyl)phenyl)boronic Acid], the IC50 came to 5.3 nM.

In the case of `CC#CCn1c(N2CCC[C@@H](N)C2)nc2c1c(=O)n(Cc1ccc(C(=O)O)cc1)c(=O)n2C` [Compound 28], the 50% inhibitory concentration (IC50) is 10.5 nM.

Regarding `CC#CCn1c(N2CCC[C@@H](N)C2)nc2c1c(=O)n(Cc1nc(F)ccc1C(=O)O)c(=O)n2C` [Compound 29], the IC50 came to 7.1 nM. Regarding `CC#CCn1c(N2CCC[C@@H](N)C2)nc2c1c(=O)n(Cc1nc(F)ccc1C(=O)OCCCCCC)c(=O)n2C` [Compound 30, hexyl (R)-2-((8-(3-aminopiperidin-1-yl)-7-(but-2-yn-1-yl)-3-methyl-2,6-dioxo-2,3,6,7-tetrahydro-1H-purin-1-yl)methyl)-6-fluoronicotinate], the IC50 was above 1000 nM. With `CC#CCn1c(N2CCC[C@@H](N)C2)nc2c1c(=O)n(Cc1nc(NC)ccc1C(=O)O)c(=O)n2C` [Compound 31], the IC50 amounted to 11.4 nM.
